{"source": "paper PMC4667280", "about": "“Crystal structure of FadD32, an enzyme essential for mycolic acid biosynthesis in mycobacteria” (Scientific Reports, 2015)", "target": "T1, MsFadD32 (full-length FadD32 from M. smegmatis) (Mycolicibacterium smegmatis, UniProt A0R618)", "T1 construct": "full-length (N-terminal domain 1-483, C-terminal domain 484-630), expressed in E. coli BL21(DE3) as SUMO (SMT3) fusion; crystal of the SUMO fusion", "T1 sequence (A0R618 1-630)": "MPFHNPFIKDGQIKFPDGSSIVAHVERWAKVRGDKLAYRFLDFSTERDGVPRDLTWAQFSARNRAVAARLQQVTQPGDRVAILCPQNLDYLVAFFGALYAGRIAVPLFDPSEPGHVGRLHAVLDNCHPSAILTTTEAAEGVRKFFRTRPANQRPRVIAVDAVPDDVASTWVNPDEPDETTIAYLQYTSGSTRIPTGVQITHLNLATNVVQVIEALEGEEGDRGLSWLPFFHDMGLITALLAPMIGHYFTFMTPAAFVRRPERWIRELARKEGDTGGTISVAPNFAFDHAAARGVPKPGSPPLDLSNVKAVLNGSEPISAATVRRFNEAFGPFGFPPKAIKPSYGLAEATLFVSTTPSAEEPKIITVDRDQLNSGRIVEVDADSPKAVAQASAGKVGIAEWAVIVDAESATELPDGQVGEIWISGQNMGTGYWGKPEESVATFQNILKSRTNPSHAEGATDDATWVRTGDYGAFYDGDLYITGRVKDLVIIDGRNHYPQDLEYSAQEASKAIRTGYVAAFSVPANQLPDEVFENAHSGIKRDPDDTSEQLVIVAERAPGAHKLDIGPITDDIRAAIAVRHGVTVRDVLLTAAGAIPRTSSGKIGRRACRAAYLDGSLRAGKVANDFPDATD", "assay": "isothermal titration calorimetry; crystal structure of the complex at […] Å", "type": "binding", "data": [{"smiles": "Nc1ncnc2c1ncn2[C@@H]1O[C@H](COP(=O)(O)OP(=O)(O)OP(=O)(O)O)[C@@H](O)[C@H]1O", "note": "[ATP]", "values": [{"measurement": "Kd", "value": "~36", "unit": "µM"}]}]}
